From patent publication US11466044B2 (WAYNE STATE UNIVERSITY, priority 2017, dated 2022)
≈ marks a conversion by molar mass, not a printed value. Like-named read-outs stand apart in the source and are kept apart here.

Assays:
P aeruginosa = test: MIC by broth microdilution, P aeruginosa isolates; assay type: cell-based, Pseudomonas aeruginosa; details: for MIC: Pseudomonas aeruginosa
[1] = tested on: rabbit reticulocyte ribosomes; test: in-vitro translation assay, rabbit reticulocyte ribosomes; assay type: biochemical; details: mammalian cytosolic ribosomes (rabbit)
E coli wild type = test: MIC by broth microdilution, wild type E coli; assay type: cell-based; details: for MIC pH430 WT: E. coli strain pH430, WT; for MIC: Escherichia coli
MRSA = test: MIC by broth microdilution, MRSA isolates; assay type: cell-based; details: for MIC: Staphylococcus aureus, MRSA
[2] = tested on: A1555G mutant mitochondrial ribosome (human chimeric); test: in-vitro translation assay, human chimeric ribosomes, A1555G mutant mitochondrial decoding site; assay type: biochemical; details: human mitochondrial decoding site with A1555G point mutation; read-out: IC50 Mitoch. A1555G
Description: (§1) The antiribosomal activity of these compounds was investigated with cell-free translation assays using both wild type bacterial ribosomes and hybrid ribosomes carrying eukaryotic decoding A sites enabling the prediction of selectivity.

[3] = tested on: cytosolic ribosome (human chimeric); assay type: biochemical; details: for IC50: ribosomes with a human cytosolic decoding site, read-out: IC50 Cytosolic
Description: as §1

[4] = tested on: mitochondrial ribosome (human chimeric); assay type: biochemical; details: ribosomes with a human mitochondrial decoding site; read-out: IC50 Mitoch.
Description: as §1

[5] = tested on: wild type bacterial ribosomes; test: in-vitro translation assay, bacterial ribosomes; assay type: biochemical; details: Mycobacterium smegmatis ribosomes; read-out: IC50 Bacterial
Description: as §1

[6] = tested on: E coli carrying specific resistance determinants; test: MIC by broth microdilution, E coli carrying specific resistance determinants; assay type: cell-based; details: for MIC AG036 ANT(4′,4′′): E. coli strain AG036, ANT(4′,4′′); for MIC AG037 APH(3′)-III: E. coli strain AG037, APH(3′)-III; for MIC AG103 armA: E. coli strain AG103, armA; for MIC pH414 AAC(6′)-I: E. coli strain pH414, AAC(6′)-I; for MIC pH415 AAC(6′)-II: E. coli strain pH415, AAC(6′)-II; for MIC pH421 APH(3)-I: E. coli strain pH421, APH(3)-I; for MIC pH422 APH(3′)-II: E. coli strain pH422, APH(3′)-II; for MIC pH423 APH(3′)-VI: E. coli strain pH423, APH(3′)-VI; for MIC pH432 ANT(4′): E. coli strain pH432, ANT(4′); for MIC AG003 E. coli AAC(3)-II: clinical isolate AG003, AAC(3)-II
[7] = clinical isolate AG031, APH(3′)-II
[8] = clinical isolate AG032, APH(3′)-II
[9] = clinical isolate AG039, AAC(6′)-I ANT(4′)-I
[10] = clinical isolate AG042, AAC(6′)-I ANT(4′)-I APH(2′)

Row | SMILES | MIC AG031 P. aer. APH(3′)-II (P aeruginosa; [7]) [µg/mL] | MIC AG032 P. aer. APH(3′)-II (P aeruginosa; [8]) [µg/mL] | IC50 [1] [µM] | MIC pH430 WT (E coli wild type) | MIC AG001 E. coli WT (E coli wild type; clinical isolate AG001, WT) [µg/mL] | MIC AG055 E. coli WT (E coli wild type; clinical isolate AG055, WT) [µg/mL] | MIC AG038 MRSA (MRSA; clinical isolate AG038) [µg/mL] | MIC AG039 MRSA AAC(6′)-I ANT(4′)-I (MRSA; [9]) [µg/mL] | MIC AG042 MRSA AAC(6′)-I ANT(4′)-I APH(2′) (MRSA; [10]) [µg/mL] | MIC AG044 MRSA (MRSA; clinical isolate AG044) [µg/mL] | IC50 [2] [µM] | IC50 [3] [µM] | IC50 [4] [µM] | IC50 [5] [µM] | MIC AG036 ANT(4′,4′′) [6] [µg/mL] | MIC AG037 APH(3′)-III [6] [µg/mL] | MIC pH421 APH(3)-I [6] [μg/ml] | MIC pH422 APH(3′)-II [6] [μg/ml] | MIC pH423 APH(3′)-VI [6] [μg/ml] | MIC AG003 E. coli AAC(3)-II [6] [µg/mL] | other results
1 | CC(O)C1OC(OC2C(N)CC(N)C(O)C2OC2OC(CO)C(OC3OC(CN)C(O)C(O)C3N)C2O)C(N)C(O)C1O (stereo not shown) [DC156] | >32 | >32 | 5.4 | 1 μg/ml | 4 to 8 | 4 (≈ 6.35 µM) | 4 to 8 | >128 | >128 | 2 to 4 | 8.4 | 2.6 | 185 | 0.02 | 32 to 64 | >32 | >32 | >32 | >32 | 4 (≈ 6.35 µM) | Target specificity bacterial vs. Cytosolic ([3]; relative target specificity, bacterial vs. human cytosolic): low; MIC AG103 armA [6]: 1 µg/mL (≈ 1.59 µM); MIC pH414 AAC(6′)-I [6]: 1 μg/ml; MIC pH415 AAC(6′)-II [6]: 1 μg/ml; MIC pH432 ANT(4′) [6]: 1 μg/ml
2 | CC(C)(O)[C@H]1O[C@H](O[C@H]2[C@H](O[C@@H]3O[C@H](CO)[C@@H](O[C@H]4O[C@@H](CN)[C@@H](O)[C@H](O)[C@H]4N)[C@H]3O)[C@@H](O)[C@H](N)C[C@@H]2N)[C@H](N)[C@@H](O)[C@@H]1O [DC159] | >128 | >128 | 15 | 1-2 μg/ml | 8 (≈ 12.4 µM) | 8 (≈ 12.4 µM) | 8 to 16 | >128 | >128 | 4 to 8 | 87 | 30 | 211 | 0.04 | 16 to 32 | >64 | >64 | >64 | 8 | 8 (≈ 12.4 µM) | MIC AG103 armA [6]: 4 to 8 µg/mL; MIC pH432 ANT(4′) [6]: 2 μg/ml
3 | CC(N)C1OC(OC2C(N)CC(N)C(O)C2OC2OC(CO)C(OC3OC(CN)C(O)C(O)C3N)C2O)C(N)C(O)C1O (stereo not shown) [DC166] | 128 to 256 | 128 (≈ 204 µM) | 48 | 0.5 μg/ml | 2 (≈ 3.18 µM) | 2 (≈ 3.18 µM) | 2 (≈ 3.18 µM) | >128 | >128 | 1 (≈ 1.59 µM) | 1 | 26 | 9 | 0.01 | 16 (≈ 25.5 µM) | >64 | >32 | >32 | >32 | 2 (≈ 3.18 µM) | MIC AG103 armA [6]: 1 µg/mL (≈ 1.59 µM); MIC pH414 AAC(6′)-I [6]: 0.5 μg/ml; MIC pH415 AAC(6′)-II [6]: 1-2 μg/ml; MIC pH432 ANT(4′) [6]: 0.5 μg/ml
4 | NCC1OC(OC2C(CO)OC(OC3C(O)C(N)CC(N)C3OC3OC4C(O)CCCOC4C(O)C3N)C2O)C(N)C(O)C1O (stereo not shown) [DC196] | >32 |  | 43 | 4 μg/ml | 4 (≈ 6.1 µM) |  | 2 (≈ 3.05 µM) |  |  |  | 96 | 88 | 200 | 0.14 | 2 (≈ 3.05 µM) | >128 | >128 | 64 | 16 |  | 
5 | CNC1C(OC2C(N)CC(N)C(O)C2OC2OC(CO)C(O)C2O)OC(CN)C(O)C1O (stereo not shown) [DC-100] |  |  | 90 |  |  |  |  |  |  |  | 224 | 372 | 457 | 0.52 |  |  |  |  |  |  | MIC (P aeruginosa; clinical isolate AG031, APH(3′)-II, read-out: MIC AG031 P. aer. APH(3′)-II): > 128 µg/mL; MIC (P aeruginosa; clinical isolate AG032, APH(3′)-II, read-out: MIC AG032 P. aer. APH(3′)-II): > 128 µg/mL; MIC (E coli wild type; clinical isolate AG001, WT, read-out: MIC AG001 E. coli WT): 64 to 128 µg/mL (≈ 137 to 273 µM); MIC (E coli wild type; clinical isolate AG055, WT, read-out: MIC AG055 E. coli WT): 64 to 128 µg/mL (≈ 137 to 273 µM); MIC (MRSA; clinical isolate AG038, read-out: MIC AG038 MRSA): 64 to 128 µg/mL (≈ 137 to 273 µM); MIC (MRSA; clinical isolate AG039, AAC(6′)-I ANT(4′)-I, read-out: MIC AG039 MRSA AAC(6′)-I ANT(4′)-I): > 128 µg/mL; MIC (MRSA; clinical isolate AG042, AAC(6′)-I ANT(4′)-I APH(2′), read-out: MIC AG042 MRSA AAC(6′)-I ANT(4′)-I APH(2′)): > 128 µg/mL; MIC (MRSA; clinical isolate AG044, read-out: MIC AG044 MRSA): 128 µg/mL (≈ 273 µM); MIC ([6]; Escherichia coli, read-out: MIC AG003 E. coli AAC(3)-II): 64 µg/mL (≈ 137 µM)
6 | NC[C@@H]1O[C@H](O[C@H]2[C@@H](O)[C@H](O[C@@H]3[C@@H](O)[C@H](N)C[C@H](N)[C@H]3O[C@H]3O[C@H](CN)[C@@H](O)[C@H](O)[C@H]3O)O[C@@H]2CO)[C@H](N)[C@@H](O)[C@@H]1O [DC-119] | 128 (≈ 208 µM) | 128 (≈ 208 µM) | 88 |  | 2 to 4 | 2 to 4 | 2 (≈ 3.25 µM) | >128 | >128 | 2 (≈ 3.25 µM) | 2.7 | 108 | 36 | 0.03 |  |  |  |  |  | 2 to 4 | 
7 | CCNC1C(OC2C(N)CC(N)C(O)C2OC2OC(CO)C(OC3OC(CN)C(O)C(O)C3N)C2O)OC(CN)C(O)C1O (stereo not shown) [DC-172] | >64 | >64 | 45 |  | 1 to 2 | 1 (≈ 1.56 µM) | 0.5 (≈ 0.778 µM) | >32 | >32 | 1 (≈ 1.56 µM) | 1.6 | 43 | 11 | 0.01 |  |  |  |  |  | 1 (≈ 1.56 µM) | 
